Data: paper PMC10680098 (Nature, 2023)

What was measured:
[1] = tested on: CFTR, cystic fibrosis transmembrane conductance regulator; assay: CFTR rescue activity; format: cell-based; conditions: result given in words only; RC50 value is in Fig. 4b, which could not be read
[2] = solubility at different pH values; format: physicochemical; conditions: at all measured pH values
[3] = in vitro intrinsic clearance; format: in vitro ADME; conditions: metabolic stability, details in SI

| SMILES | activity (half-maximal rescue concentration, RC50) [1] | solubility compared to the parent benzene-containing drug [2] | in vitro intrinsic clearance (CLint) [3] | in vitro intrinsic clearance (CLint) ([3]; listed as Cuba-Lumacaftor) |
| --- | --- | --- | --- | --- |
| Cc1ccc(NC(=O)C2(c3ccc4c(c3)OC(F)(F)O4)CC2)nc1C12C3C4C5C3C1C5(C(=O)O)C42 (stereo not drawn) [compound 56, Cuba-Lumacaftor] | high activity | improved solubility | < 7 μL/min/10^6 cells | 6.98 μL/min/10^6 cells |
| Cc1ccc(NC(=O)C2(c3ccc4c(c3)OC(F)(F)O4)CC2)nc1-c1cccc(C(=O)O)c1 [compound 57, reference compound] | – | – | 11.96 μL/min/10^6 cells | – |
| CCN(CC)CCNC(=O)C12C3C4C1C1C2C3C41NC(C)=O (stereo not drawn) [compound 58, Cuba-Acecainide] | – | – | < 7 μL/min/10^6 cells | – |
